The values below are quoted from earlier work in patent publication US20150313913A1, “POSITIVE ALLOSTERIC MODULATORS OF THE GABA-A RECEPTOR IN THE TREATMENT OF AUTISM” (UNIVERSITY OF WASHINGTON THROUGH ITS CENTER FOR …, priority 2013, published 2015).

Data set [1] relates to GABA-A receptor. The following applies: cited from earlier work; for Effect at GABA-A receptor: Table 1, exemplary benzodiazepines.
The conditions of data set [2]: cited from earlier work; for Dose in humans for anti-anxiety, anti-convulsive, or sedative effects: equivalent dose to 10 mg diazepam: Table 1, values marked *; for Dose in humans for anti-anxiety, anti-convulsive, or sedative effects (dose range, typical or average dose): Table 1, values not marked *; for Dose in humans for anti-anxiety, anti-convulsive, or sedative effects, per day: Table 1, typical daily dose.

[3] abbreviates: Table 4, exemplary non-BDZ GABA-A enhancers.

Like-named read-outs stand apart in the source and are kept apart here.

For `CCc1cc2c(s1)N(C)C(=O)CN=C2c1ccccc1Cl` [Clotiazepam], the “Effect at GABA-A receptor” value in data set [1] is reported as “Full agonist”. The “Dose in humans for anti-anxiety, anti-convulsive, or sedative effects: equivalent dose to 10 mg diazepam” value (from here on “Dose in humans … to 10 mg diazepam”) in data set [2] is 5 to 10 mg.
As to `Cc1c2c(cn1C)NC(=O)CN=C2c1ccccc1` [Premazepam], in data set [1], the “Effect at GABA-A receptor” value is listed as “Partial agonist”. The “Dose in humans … to 10 mg diazepam” value in data set [2] was 15 mg.
Turning to `O=C1CN=C(c2ccccn2)c2cc(Br)ccc2N1` [Bromazepam], the “Effect at GABA-A receptor” value in data set [1] is given as “Agonist”. Also, the “Dose in humans … to 10 mg diazepam” value in data set [2] was 5 to 6 mg.
As for `CN1C(=O)CN=C(c2ccccc2)c2cc([N+](=O)[O-])ccc21` [Nimetazepam], in data set [1], the “Effect at GABA-A receptor” value was “Agonist”. Further, the “Dose in humans … to 10 mg diazepam” value in data set [2] was 5 mg.
Turning to `CCOC(=O)C1N=C(c2ccccc2F)c2cc(Cl)ccc2NC1=O` (centres unmarked) [Ethyl loflazepate], in data set [1], the “Effect at GABA-A receptor” value is recorded as “Agonist (Prodrug)”. Moreover, the “Dose in humans … to 10 mg diazepam” value in data set [2] was 2 mg.
Consider `CN1CCN(/C=C2\N=C3CN=C(c4ccccc4Cl)c4cc([N+](=O)[O-])ccc4N3C2=O)CC1` [Loprazolam], for which the “Effect at GABA-A receptor” value in data set [1] is on record as “Agonist”. In data set [2], the “Dose in humans … to 10 mg diazepam” value was 2 mg and the “Dose in humans for anti-anxiety, anti-convulsive, or sedative effects (dose range, typical or average dose)” value is 1 to 2 mg.
On to `N#CCCN1C(=O)C(O)N=C(c2ccccc2F)c2cc(Cl)ccc21` (centres unmarked) [Cinolazepam], for which the “Effect at GABA-A receptor” value in data set [1] is “Agonist”. Moreover, the “Dose in humans … to 10 mg diazepam” value in data set [2] was 40 mg.
For the compound `CN1CCN=C(c2ccccc2)c2cc(Cl)ccc21` [Medazepam], the “Effect at GABA-A receptor” value in data set [1] is listed as “Agonist Long- acting”. For the same compound, the “Dose in humans … to 10 mg diazepam” value in data set [2] is 10 mg.
`O=C1CN2CCOC2(c2ccccc2Cl)c2cc(Cl)ccc2N1` (centres unmarked) [Cloxazolam]: the “Effect at GABA-A receptor” value in data set [1] is recorded as “Agonist (Prodrug)”. For the same compound, the “Dose in humans … to 10 mg diazepam” value in data set [2] was 1 mg.
For `O=C1CN=C(c2ccccc2)c2cc(Cl)ccc2N1CC1CC1` [Prazepam], the “Effect at GABA-A receptor” value in data set [1] is “Agonist (Prodrug)”. Besides, the “Dose in humans … to 10 mg diazepam” value in data set [2] is 20 mg.
In the case of `CN1C(=O)CN=C(c2ccccc2)c2cc(Cl)ccc21` [Diazepam], in data set [1], the “Effect at GABA-A receptor” value is reported as “Agonist Long- acting”. For the same compound, in data set [2] (2-4 times daily), the “dose typically administered to achieve an anxiolytic or anti-convulsive effect” value is 2 to 10 mg. The “Dose in humans … to 10 mg diazepam” value in data set [2] is reported as 10 mg.
On to `CN1C(=O)CN=C(c2ccccc2F)c2cc([N+](=O)[O-])ccc21` [Flunitrazepam], for which the “Effect at GABA-A receptor” value in data set [1] is “Agonist”. For the same compound, the “Dose in humans … to 10 mg diazepam” value in data set [2] was 1 mg.
Take `O=C1Nc2ccc(Cl)cc2C(c2ccccc2)=NC1O` (centres unmarked) [Oxazepam]: in data set [1], the “Effect at GABA-A receptor” value is recorded as “Agonist Short- acting”. The “Dose in humans, mild/moderate anxiety” value in data set [2] (Table 1, 1 to 2 times daily) was 10 to 15 mg. Further, in data set [2] (Table 1, 3 to 4 times daily), the “Dose in humans, severe anxiety” value is reported as 15 to 30 mg and the “Dose in humans, symptoms related to alcohol withdrawal” value is given as 15 to 30 mg. For the same compound, in data set [2], the “Dose in humans … to 10 mg diazepam” value is listed as 20 mg.
With `Cc1nnc2n1-c1ccc(Br)cc1C(c1ccccn1)=NC2` [Pyrazolam], the “Effect at GABA-A receptor” value in data set [1] was “Agonist”. For the same compound, in data set [2], the “Dose in humans … to 10 mg diazepam” value is 1 mg.
With `O=C1CN=C(c2ccccc2)c2cc([N+](=O)[O-])ccc2N1` [Nitrazepam], the “Effect at GABA-A receptor” value in data set [1] is given as “Full agonist Long- acting”. The “Dose in humans … to 10 mg diazepam” value in data set [2] was 10 mg.
Turning to `CCc1cc2c(s1)-n1c(C)nnc1CN=C2c1ccccc1Cl` [Etizolam], in data set [1], the “Effect at GABA-A receptor” value is “Full agonist”. In addition, the “Dose in humans … to 10 mg diazepam” value in data set [2] is 0.5 to 1 mg.
In the case of `Cc1nnc2n1-c1sc(Br)cc1C(c1ccccc1Cl)=NC2` [Brotizolam], the “Effect at GABA-A receptor” value in data set [1] is given as “Agonist”. Further, the “Dose in humans, sedative” value in data set [2] (Table 1, Sedative) was 0.125 to 25 mg. The “Dose in humans, anti-anxiety” value in data set [2] (Table 1, anti-anxiety) was 80 to 100 mg. Also, the “Dose in humans … to 10 mg diazepam” value in data set [2] is 0.25 mg.
Regarding `CNC1=Nc2ccc(Cl)cc2C(c2ccccc2)=[N+]([O-])C1` [Chlordiazepoxide], the “Effect at GABA-A receptor” value in data set [1] is “Agonist Long- acting”. Also, the “Dose in humans … to 10 mg diazepam” value in data set [2] is 25 mg.
With `CCN(CC)CCN1C(=O)CN=C(c2ccccc2F)c2cc(Cl)ccc21` [Flurazepam], in data set [1], the “Effect at GABA-A receptor” value is given as “Partial agonist”. In data set [2], the “Dose in humans … to 10 mg diazepam” value was 15 to 30 mg.
For the compound `CC(C)(C)C(O)/C=C/c1ccc2c(c1)OCO2` (centres unmarked) [Stiripentol], the “Dose in humans for anti-anxiety, anti-convulsive, or sedative effects” value in data set [2] (Table 4) is 50-100 mg/kg/day (max daily dose 4 g).
Regarding `CN1C(=O)C(O)N=C(c2ccccc2)c2cc(Cl)ccc21` (centres unmarked) [Temazepam], the “Effect at GABA-A receptor” value in data set [1] is “Agonist”. Further, the “Dose in humans … to 10 mg diazepam” value in data set [2] was 20 mg.
With `CCC1C(C)=NN=C(c2ccc(OC)c(OC)c2)c2cc(OC)c(OC)cc21` (centres unmarked) [Tofisopam], in data set [1], the “Effect at GABA-A receptor” value was “Agonist”. In addition, the “Dose in humans for anti-anxiety, anti-convulsive, or sedative effects, per day” value in data set [2] is on record as “Typical dose 50- 300 mg/day in divided doses”.
On to `CN(C(=O)CNC(=O)[C@@H](N)CCCCN)c1ccc(Cl)cc1C(=O)c1ccccc1` [Avizafone], for which, in data set [1], the “Effect at GABA-A receptor” value is listed as “Full agonist”. Moreover, the “Dose in humans for anti-anxiety, anti-convulsive, or sedative effects” value in data set [2] (Table 1) was 3.5 mg/kg.
Take `CN(C)Cc1nnc2n1-c1ccc(Cl)cc1C(c1ccccc1)=NC2` [Adinazolam]: in data set [1], the “Effect at GABA-A receptor” value was “Full agonist”.
`O=C1CN=C(c2ccccc2Cl)c2cc(Br)ccc2N1` [Phenazepam]: in data set [1], the “Effect at GABA-A receptor” value was “Agonist”. Besides, in data set [2], the “Dose in humans … to 10 mg diazepam” value is listed as 1 mg and the “Dose in humans for anti-anxiety, anti-convulsive, or sedative effects (dose range, typical or average dose)” value is recorded as 0.5 mg.
Turning to `O=C(O)C1N=C(c2ccccc2)c2cc(Cl)ccc2NC1=O` (centres unmarked) [Clorazepate], in data set [1], the “Effect at GABA-A receptor” value was “Partial Agonist (Prodrug)”. Besides, in data set [2], the “Dose in humans for anti-anxiety, anti-convulsive, or sedative effects, per day” value is 15 to 60 mg/day and the “Dose in humans … to 10 mg diazepam” value is 15 mg.
With `[O-][N+]1=C(c2ccccc2)c2cc(Cl)ccc2N=C(NCC2CC2)C1` [Cyprazepam], the “Effect at GABA-A receptor” value in data set [1] was “Agonist”.
Regarding `COc1c(-c2ccc(N)cc2)nc2ccc(NCc3cccc(C)c3)nn12` [GBLD-345], the “Effect at GABA receptor” value in data set [1] (setting [3]) is “Full agonist”.
`NC(=O)c1ncn2c1CN=C(c1ccccc1Br)c1cc(F)ccc1-2` [Imidazenil]: the “Effect at GABA-A receptor” value in data set [1] was “Partial agonist”.
On to `CCOC(=O)C1N=C(c2ccccc2F)c2cc(Cl)ccc2N(C(=O)NC)C1=O` (centres unmarked) [Ethyl carfluzepate], for which the “Effect at GABA-A receptor” value in data set [1] is reported as “Agonist”.
Regarding `CC(C)(O)c1ccn2c(-c3ccc(F)c(-c4ccc(F)cc4C#N)c3)cnc2c1F` [TP-003], the “Effect at GABA receptor” value in data set [1] (Table 2, exemplary SS-PAMs) is “Partial agonist α2,3,5 subtype selective binding and α3 selective efficacy”.
Turning to `O=c1cc2c(nn1-c1ccc(Cl)cc1)-c1ccccc1[S+]([O-])CC2` (centres unmarked) [Y-23684], the “Effect at GABA receptor” value in data set [1] (setting [3]) is reported as “Partial agonist Non- selective”.
For the compound `CN1C(=O)CN2CCc3ccccc3C2c2cc(Cl)ccc21` (centres unmarked) [Clazolam], in data set [1], the “Effect at GABA-A receptor” value is “Agonist”.
As to `NNC(=O)CN1C(=O)CN=C(c2ccccc2)c2cc(Br)ccc21` [Gidazepam], in data set [1], the “Effect at GABA-A receptor” value is reported as “Agonist (Prodrug)”.
For the compound `Cn1ncnc1COc1nn2c(-c3ccccc3)nnc2cc1C1CCC1` [TP-13], the “Effect at GABA receptor” value in data set [1] (Table 2, exemplary SS-PAMs) was “Partial agonist at α2,3 subunits”.
Regarding `CC1COC2(c3ccccc3Cl)c3cc(Cl)ccc3NC(=O)CN12` (centres unmarked) [Mexazolam], in data set [1], the “Effect at GABA-A receptor” value is recorded as “Agonist”.
`c1cc(-n2ccnc2)cc(-n2cnc3cc(-c4ccoc4)ccc32)c1` [NS-2664]: in data set [1] (Table 2, exemplary SS-PAMs), the “Effect at GABA receptor” value is reported as “Partial agonist α2,3 subtype selective”.
As for `Clc1ccc2c(c1)C1=NCCN1c1c(-c3noc(C4CC4)n3)ncn1-2` [U-90042], in data set [1] (Table 2, exemplary SS-PAMs), the “Effect at GABA receptor” value is listed as “Agonist at α1,3,6 subunits”.
`COC(=O)CC[C@@H]1N=C(c2ccccn2)c2cc(Br)ccc2-n2c(C)cnc21` [Remimazolam]: the “Effect at GABA-A receptor” value in data set [1] is given as “Agonist”.
With `CCCc1c(Cn2ccnc2-c2ncccc2F)ncn2nc(C)nc12` [Adipiplon], the “Effect at GABA receptor” value in data set [1] (Table 2, exemplary SS-PAMs) was “Partial agonist α3 selective”.
Consider `Cc1nn(C)c2c1C(c1ccccc1F)=NCC(=O)N2C` [Zolazepam], for which the “Effect at GABA-A receptor” value in data set [1] was “Agonist”.
As to `CC(C)n1c(=O)c2c(-c3noc(C4CC4)n3)ncn2c2ccccc21` [Panadiplon], in data set [1] (setting [3]), the “Effect at GABA receptor” value is reported as “Partial agonist”.
Take `O=C1N=C(N2CCCCC2)CN1c1ccc(Cl)cc1` [ELB-139]: in data set [1] (Table 2, exemplary SS-PAMs), the “Effect at GABA receptor” value was “Partial agonist Highest affinity for α3 subtype but highest efficacy at the α1 and α2 subunits”.
On to `CCc1ccc(-c2nc3ccc(C)cn3c2CN(C)C(=O)CC(C)C)cc1` [Necopidem], for which the “Effect at GABA receptor” value in data set [1] (setting [3]) is listed as “Agonist”.
Regarding `O=c1c2cnc3ccccc3c2[nH]n1-c1ccccc1` [CGS-8216], the “Effect at GABA receptor” value in data set [1] (setting [3]) was “Agonist”.
On to `COc1nc2nc(-c3noc(C)n3)cn2c2c1CCCC2` [Taniplon], for which the “Effect at GABA receptor” value in data set [1] (setting [3]) is listed as “Agonist”.
For `CC(C)(C)C(=O)OC1N=C(c2ccccc2)c2cc(Cl)ccc2NC1=O` (centres unmarked) [Pivoxazepam], the “Effect at GABA-A receptor” value in data set [1] is reported as “Agonist”.
As to `Cc1nn(C)c2c1N(c1ccccc1)C(=O)CC(=O)N2C` [Zomebazam], the “Effect at GABA-A receptor” value in data set [1] is “Agonist”.
Take `O=c1nc2ccccc2c2nc(-c3ccccc3)[nH]n12` [CGS-13767]: the “Effect at GABA receptor” value in data set [1] (setting [3]) is on record as “Agonist”.
Consider `CCCN(CCC)Cc1nc(-c2ncn3c2CN(C)C(=O)c2cc(F)ccc2-3)no1` [Ro48-6791], for which, in data set [1], the “Effect at GABA-A receptor” value is reported as “Agonist”.
